Earlier results, collected in patent publication US20120129696A1, “METHOD FOR INCREASING THE LEVEL OF FREE AMINO ACIDS IN STORAGE TISSUES OF PERENNIAL PLANTS” (priority 2009, published 2012).

Test system: wheat plants

## COC(=O)N(OC)c1ccccc1COc1ccn(-c2ccc(Cl)cc2)n1 [pyraclostrobin]
  relative content of protein and C/N-ratios, control compared to treated plants: neither the relative content of protein nor C/N-ratios were different
After a single application at rates normally used for fungal control at the field site
  persistence of enhancement of nitrate reduction: 3 nights
Rates normally used for fungal control at the field site
  nitrite and ammonia in the leaves following application: accumulated
